Source: US7122530B2, “24-hydroxyvitamin D, analogs and uses thereof” (Genzyme Corporation, priority 1998, dated 2006)
Read-outs that look alike come from different tables or passages of the source.

Experiments:
[1] = Production of 1α,24(S)-(OH)2-25-ene-D2 in osteoporotic women (blood metabolite, HPLC and radioreceptor assay); assay type: in vivo, human; conditions: 25 μg/day for one week; one day following the last dose
Protocol: Human female subjects, who have been diagnosed with osteoporosis, are given daily doses of 25 μg/day 24-OH-25-ene-D2 for one week. Blood is collected and analyzed for the metabolite 1α,24(S)-(OH)2-25-ene-D2. Lipid is extracted from the blood, and the metabolite is purified by HPLC using standard methods and quantified with the radioreceptor assay produced by Incstar (Stillwater, Minn.).

[2] = In vivo generation of 1α,24-(OH)2-D2 in vitamin D-deficient rats (plasma metabolites by HPLC)
Protocol: 24-OH-D2 was administered (either oral or intraperitoneal supplementation) to vitamin D-deficient rats. Lipid extracts of the plasma were prepared and the metabolites purified by the method of Horst et al. (Horst, R. L., Koszewski, N. J. and Reinhardt, T. A., Biochem., 29:578–82 (1990) and incorporated herein by reference) described below for synthesizing standard biological 1α,24-(OH)2D2.

[3] = tested on: dermatitis (contact and ectopic) patients; test: Double blind study of oral 24(S)-OH-preD2 formulation in dermatitis (contact and ectopic); assay type: in vivo, human; conditions: daily oral 10.0 to 20.0 μg, four to six weeks
Protocol: An oral dosage formulation containing 24(S)-OH-preD2 is evaluated in a double blind study for therapeutic efficacy of the formulation in the treatment of dermatitis (contact and ectopic). The formulation evaluated contains 10.0 to 20.0 μg of 24(S)-OH-preD2. […] The patients are treated in an outpatient clinic and are divided into an experimental and control population. They are instructed to take the medication once a day, in the morning before breakfast.
In each patient (experimental and control) an area of the skin containing a lesion is selected which is ordinarily covered by clothing, and the patients are instructed not to expose the skin area selected for study to sunlight. The area of the lesion is estimated and recorded, and the lesion(s) is photographed. Relevant details of the photographic procedure are recorded so as to be reproduced when the lesions are next photographed (distance, aperture, angle, background, etc.).
Evaluations of erythema, scaling, and thickness are conducted at weekly intervals by a physician. The final evaluation is usually carried out at the end of four to six weeks of treatment.

[4] = tested on: postmenopausal women; conditions: cited from earlier work
[5] = tested on: patients (Japan; senile osteoporosis); conditions: cited from earlier work
[6] = tested on: subjects with secondary hyperparathyroidism; test: Twelve-month placebo-controlled trial of 24-(OH)-D4 in elderly subjects with secondary hyperparathyroidism; assay type: in vivo, human; conditions: 15 μg/day, twelve months
Protocol: (§1) A twelve-month double-blind placebo-controlled clinical trial is conducted with forty subjects with secondary hyperparathyroidism. The selected subjects have ages between 60 and 100 years and have a history of secondary hyperparathyroidism. Subjects also have femoral neck osteopenia (femoral neck bone mineral density of ≦0.70 g/cm^2).
(§2) All subjects enter a six-week control period after which the subjects are randomized into two treatment groups: one group receives a constant dosage of 15 μg/day 24-(OH)-D4, and the other group receives a matching placebo. Both groups maintain a normal intake of dietary calcium without the use of calcium supplements. Efficacy is evaluated by pre- and post-treatment comparisons of the two patient groups with regard to (a) intact PTH (iPTH); (b) radial, femoral and spinal bone mineral density; and (c) bone-specific urine markers (e.g., pyridinium crosslinks). Safety is evaluated by (a) serium calcium and phosphorus, and (b) urine calcium and phosphorus.

[7] = tested on: postmenopausal osteoporotic out-patients; test: Clinical study of prevention of bone mass loss with 24(S)-OH-25-ene-D2; assay type: in vivo, human; conditions: at or above 5.0 μg/day, 24 to 36 months
Protocol: A clinical study is conducted with postmenopausal osteoporotic out-patients having ages between 55 and 75 years. The study involves up to 120 patients randomly divided into three treatment groups and continues for 24 to 36 months. Two of the treatment groups receive constant dosages of 24(S)-OH-25-ene-D2 (u.i.d.; two different dose levels at or above 5.0 μg/day) and the other group receives a matching placebo. All patients maintain a normal intake of dietary calcium (500 to 800 mg/day) and refrain from using calcium supplements. Efficacy is evaluated by pre- and post-treatment comparisons of the patient groups with regard to (a) total body calcium retention, and (b) radial and spinal bone mineral density as determined by dual-photon absorptiometry (DPA) or dual-energy x-ray absorptiometry (DEXA). Safety is evaluated by comparisons of urinary hydroxyproline excretion, serum and urine calcium levels, creatinine clearance, blood urea nitrogen, and other routine determinations.

[8] = tested on: patients with advanced androgen-independent prostate cancer; test: Study of Example 10 repeated with 24-OH-preD2 in prostate cancer; assay type: in vivo, human; conditions: for progression of metastatic disease (CAT scans, X-rays and bone scans): phase two, after two years
Source text: Patients with advanced androgen-independent prostate cancer participate in an open-label study of 24-(OH)-D2. […] On admission to the study, patients begin a course of therapy with oral 24-(OH)-D2 lasting 26 weeks, while discontinuing any previous use of calcium supplements, vitamin D supplements, and vitamin D hormone replacement therapies. During treatment, the patients are monitored at regular intervals for: (1) hypercalcemia, hyperphosphatemia, hypercalciuria, hyperphosphaturia and other toxicity; (2) evidence of changes in the progression of metastatic disease; and (3) compliance with the prescribed test drug dosage.
The study is conducted in two phases. During the first phase, the maximal tolerated dosage (MTD) of daily oral 24-(OH)D2 is determined by administering progressively higher dosages to successive groups of patients. All doses are administered in the morning before breakfast. The first group of patients is treated with 25.0 μg of 24-(OH)D2. Subsequent groups of patients are treated with 50.0, 75.0 and 100.0 μg/day. Dosing is continued uninterrupted for the duration of the study unless serum calcium exceeds 11.6 mg/dL, or other toxicity of grade 3 or 4 is observed, in which case dosing is held in abeyance until resolution of the observed toxic effect(s) and then resumed at a level which has been decreased by 10.0 μg.
The study of Example 10 is repeated for the vitamin D compound, 24-OH-preD2.

[9] = tested on: patients with primary hyperparathyroidism; test: Clinical trial of 24-OH-preD2 for primary hyperparathyroidism; assay type: in vivo, human
Protocol: Twenty renal patients are enrolled in a clinical trial to study primary hyperparathyroidism. The patients show baseline iPTH levels greater than 200 pg/mL. An initial dose of 24-OH-preD2 (2–4 μg/day) is increased (maximum, 10 μg/day) or decreased as necessary to attain and maintain iPTH in the normal range. After 11–12 weeks of treatment, the iPTH levels of the patients decrease to below 100 pg/mL, and in many cases to below 60 pg/mL.

[10] = tested on: subjects with secondary hyperparathyroidism; test: Twelve-month placebo-controlled trial of 24-OH-preD2 in elderly subjects with secondary hyperparathyroidism; assay type: in vivo, human; conditions: 15 μg/day, twelve months
Protocol: as §1
as §2, with “24-OH-preD2,” for “24-(OH)-D4,”

[11] = tested on: postmenopausal osteoporotic outpatients; test: Clinical study of osteoporosis treatment with 24-OH-preD2; assay type: in vivo, human; conditions: oral, above 5.0 μg/day, 24 months
Protocol: A clinical study is conducted with postmenopausal osteoporotic outpatients having ages between 55 and 75 years. The study involves up to 120 patients randomly divided into three treatment groups, and continues for 24 months. Two of the treatment groups receive constant dosages of orally administered 24-OH-preD2 (u.i.d.; two different dose levels above 5.0 μg/day) and the other group receives a matching placebo. All patients maintain a normal intake of dietary calcium (500 to 800 mg/day) and refrain from using calcium supplements. Efficacy is evaluated by pretreatment and posttreatment comparisons of the patient groups with regard to (a) total body, radial, femoral, and/or spinal bone mineral density as determined by x-ray absorptiometry (DEXA), (b) bone biopsies of the iliac crest, and (c) determinations of serum osteocalcin. Safety is evaluated by comparisons of urinary hydroxyproline excretion, serum and urine calcium levels, creatinine clearance, blood urea nitrogen, and other routine determinations.

[12] = Blood level of 1α,24-(OH)2-D2 in vitamin D-deficient rats given 24-OH-previtamin D2; assay type: in vivo; conditions: 0.25 μg/kg oral; four hours after administration
Protocol: Male weanling rats are fed a diet deficient in vitamin D and with normal calcium (0.47%). After a period of four weeks has elapsed, the rats are divided into two groups, and orally administered either 24-OH-previtamin D2 (0.25 μg/kg) in a vehicle such as lactose or the vehicle (control) alone.

Compound: 24-hydroxy-25-ene-vitamin D2 [24-OH-25-ene-D2]
- level of 1α,24(S)-(OH)2-25-ene-D2 in the blood [1]: significant level

Compound: C=C1CC[C@H](O)C/C1=C/C=C1\CCC[C@]2(C)[C@@H]([C@H](C)/C=C/[C@H](C)C(C)C)CC[C@@H]12 [vitamin D2]
- metabolite isolated from plasma lipid extracts versus standard 1α,24-(OH)2D2 ([2]; vitamin D-deficient rats, oral or intraperitoneal supplementation, HPLC): co-migrated on HPLC with the standard 1α,24-(OH)2D2

Compound: 24(S)-hydroxyprevitamin D2 [24(S)-OH-preD2]
- degree of erythema, scaling, and thickness versus control patients [3]: significantly reduces

Compound: C=C1/C(=C\C=C2/CCC[C@]3(C)[C@@H]([C@H](C)CCCC(C)(C)O)CC[C@@H]23)C[C@@H](O)C[C@@H]1O [1α,25-dihydroxyvitamin D3]
- intestinal calcium absorption and calcium balance ([4]; 0.5 μg/day, postmenopausal women): improved
- effects on bone mass or mineral content ([4]; dosage levels below 0.5 μg/day): no effects are observed

Compound: C=C1/C(=C\C=C2/CCC[C@]3(C)[C@@H]([C@H](C)CCCC(C)C)CC[C@@H]23)C[C@@H](O)C[C@@H]1O [1α-hydroxyvitamin D3]
- efficacy ([5]; 1 μg/day, Japan, low calcium intake): efficacy is found
- patients in whom toxicity occurs ([5]; 1 μg/day): approximately 20%
- patients in whom toxicity occurs ([5]; 2 μg/day): approximately 67%

Compound: C=C1CC[C@H](O)C/C1=C/C=C1\CCC[C@]2(C)[C@@H]([C@H](C)CCC(C)(O)C(C)C)CC[C@@H]12 (some centres unmarked) [24-(OH)-D4, 24-hydroxyvitamin D4]
- bone specific urine markers [6]: significantly decreases
- incidence of hypercalcemia [6]: insignificant incidence
- intact PTH (iPTH) [6]: significantly decreases
- radial and spinal bone densities relative to baseline values [6]: stable
- serum calcium levels [6]: normal serum calcium levels

Compound: C=C1CC[C@H](O)C/C1=C/C=C1\CCC[C@]2(C)[C@@H]([C@H](C)/C=C/[C@](C)(O)C(=C)C)CC[C@@H]12 [24(S)-OH-25-ene-D2]
- incidence of hypercalcemia or hypercalciuria, or any other metabolic disturbance [7]: insignificant incidence
- total body calcium, and radial and spinal bone densities relative to placebo [7]: significantly higher

Compound: 24-hydroxyprevitamin D2 [24-OH-preD2]
- progression of metastatic disease (CAT scans, X-rays and bone scans) ([8]; higher dosage): stable disease and partial or complete remission in many patients
- progression of metastatic disease (CAT scans, X-rays and bone scans) ([8]; lower dosage): stable disease or partial remission in many patients
- bone pain associated with metastatic disease ([8]; treated with the MTD for at least six months): significantly diminished
- iPTH levels of the patients ([9]; after 11–12 weeks, baseline greater than 200 pg/mL, 2–4 μg/day, titrated): below 100 pg/mL
- iPTH levels, in many cases ([9]; after 11–12 weeks, in many cases): below 60 pg/mL
- episodes of hypercalcemia ([9]; during the study): few episodes of hypercalcemia
- bone specific urine markers [10]: significantly decreases
- incidence of hypercalcemia [10]: insignificant incidence
- intact PTH (iPTH) [10]: significantly decreases
- radial and spinal bone densities relative to baseline values [10]: stable
- serum calcium levels [10]: normal serum calcium levels
- bone biopsies (bone formation) [11]: stimulates normal bone formation
- incidence of hypercalcemia or hypercalciuria, or any other metabolic disturbance [11]: insignificant incidence
- serum osteocalcin [11]: significant elevations
- total body, radial, femoral, and/or spinal bone densities relative to placebo [11]: significantly higher
- blood level of 1α,24-(OH)2-D2 versus control animals [12]: significantly elevated

Compound: C=C1CC[C@H](O)C/C1=C/C=C1\CCC[C@]2(C)[C@@H]([C@H](C)CCCC(C)C)CC[C@@H]12 [vitamin D3]
- detectable 24-OH-D3 in plasma ([2]; comparable vitamin D-deficient rats): no detectable 24-OH-D3
